In patent US20110028405A1, “SULFAMIDES AS ZAP-70 INHIBITORS” (priority 2007, published 2011):

Columns and labels:
ZAP-70 = target: T1, ZAP-70 (Homo sapiens, UniProt P43403); assay: ZAP-70 kinobeads assay; assay type: binding; conditions: cell lysate, dot blot detection
T1 construct: endogenous in cells; host or cells: cell lysate
T1 sequence (P43403 1-619): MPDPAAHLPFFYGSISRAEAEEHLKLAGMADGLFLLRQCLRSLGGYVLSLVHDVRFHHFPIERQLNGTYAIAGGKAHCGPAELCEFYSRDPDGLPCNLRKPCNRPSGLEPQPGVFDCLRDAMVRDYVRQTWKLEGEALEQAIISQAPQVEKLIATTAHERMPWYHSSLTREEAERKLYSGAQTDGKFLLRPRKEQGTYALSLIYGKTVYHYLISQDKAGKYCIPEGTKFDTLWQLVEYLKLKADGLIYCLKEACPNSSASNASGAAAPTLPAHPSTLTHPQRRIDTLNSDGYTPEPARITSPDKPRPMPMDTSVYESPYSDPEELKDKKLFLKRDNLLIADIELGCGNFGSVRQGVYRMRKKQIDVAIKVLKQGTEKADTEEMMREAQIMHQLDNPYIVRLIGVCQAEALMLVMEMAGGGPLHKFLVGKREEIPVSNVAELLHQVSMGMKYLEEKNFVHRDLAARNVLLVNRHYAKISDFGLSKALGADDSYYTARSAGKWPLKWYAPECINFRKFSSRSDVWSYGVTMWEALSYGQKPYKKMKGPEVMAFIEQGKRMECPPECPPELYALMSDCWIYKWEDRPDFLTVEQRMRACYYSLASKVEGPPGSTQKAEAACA
Procedure: The compounds of the present invention as described in the previous examples can be tested in the ZAP-70 kinobeads assay as described (EP-A 1862802 and WO-A 2007/137867). Briefly, test compounds (at various concentrations) and the affinity matrix with the immobilized aminopyrido-pyrimidine ligand 24 are added to cell lysate aliquots and allowed to bind to the proteins in the lysate sample. After the incubation time the beads with captured proteins are separated from the lysate. Bound proteins are then eluted and the presence ZAP-70 is detected and quantified using a specific antibody in a dot blot procedure and the Odyssey infrared detection system.

Jurkat cells = assay: Calcium release assay (Fluo-4, flow cytometry, anti-CD3 stimulation); assay type: cell-based; conditions: Homo sapiens; intracellular Ca2+ release in Jurkat cells after anti-CD3 activation
Procedure: Compounds of the present invention were tested in a Calcium release assay as described below.
The development of fluorescent probes makes it possible to measure the concentration of intracellular free Calcium ions in single living cells. Cells are first loaded with a cell-permeable Ca^2+-sensitive dye, then the test compound is added. Finally, cells are activated through the T cell receptor with an anti-CD3 antibody shortly before data acquisition on the flow cytometer. The release of Ca^2+ is measured as a function of time after cell stimulation. This protocol describes the flow cytometry method using the Fluo-3 and Fluo-4 dyes (Minta et al., 1989, J. Biol. Chem. 264(14):8171-8178) to measure the intracellular Ca^2+ concentration in Jurkat cells (see also June et al., 1997, Measurement of intracellular calcium ions by flow cytometry. In: Current Protocols in Cytometry (1997) Unit 9.8.1-9.8.19, John Wiley & Sons, Inc.).
1) Prepare a work plan indicating the number of samples to be analyzed including controls. 2) Cell harvest: Centrifuge 50 to 100 ml of a Jurkat cell culture for 5 minutes at 1100 rpm. Discard the supernatant, pool the resuspended cell pellets in a single 50 ml Falcon tube, and fill up to 50 ml with PBS-CaCl2 (without FCS). Centrifuge again sample again. 3) Resuspend cell pellet with PBS-CaCl2 (without FCS) to achieve a concentration not lower than 10×10^6 cells/ml. Prepare an adequate dilution to evaluate the cell concentration and count the cells. 4) Separate the volume of cells needed to be loaded (for example […] for 20 samples) in a 50 ml Falcon tube. Fill up with PBS-CaCl2 to 900 μl for 107 cells. 5) Prepare in the dark a 1:1 mix of FLUO-4 (1 mM)+Pluronic F-127 (20%). 5 μl of Fluo-4 are needed per 107 cells. 6) Prepare a 1/10 dilution of this mix with PBS-CaCl2 (in the dark; for example 5 μl Fluo-4+5 μl F-127 completed to 100 μl). 7) Add the dye solution to the cells. […] 8) Incubate the sample for 30 minutes in a cell incubator (37° C., 5% CO2). Mix from time to time. 9) During this time prepare the adequate test compound dilution in PBS-CaCl2 (with 10% FCS). The solution should be 10 times more concentrated than the desired final concentration. Vortex each dilution. Prepare also the antibody dilutions: anti-CD3 (1/200) and GAM (1/25). 10) Label FACS tubes and distribute in the corresponding tube 30 μl of the compound dilution or only buffer for the control tubes. 11) After 30 minutes of incubation wash the cells twice in PBS-CaCl2 (with 10% FCS). During the washing steps make sure that the flow cytometer is already “ON” in order to warm the laser. 12) Resuspend the cell pellet in PBS-CaCl2 (with 10% FCS) at a concentration of 1.5×10^6 cells/ml. 13) Distribute 300 μl of cell suspension into the FACS tubes and mix gently. The compound incubation is starting. Keep samples at room temperature in the dark. 14) Open the settings of the cytometer. It is advised to have a template ready which is used for all measurements. Settings of the machine should also be the same from one experiment to the other which permits to evaluate the reproducibility of the cell preparation. 15) In Setup modus control your cell preparation on the cytometer. Cells should fit in the pre-defined gates. 16) During the compound incubation time, check also that cells are responding to the anti-CD3 activation as expected. Set a timer at 8 sec. Add 6 μl of anti-CD3 dilution (0.2 μg/ml final) and mix gently. Add 1 μl of GAM dilution (0.75 μg/ml final) and mix gently. Incubate the samples in water bath at 37° C. while starting timer. After 8 seconds of incubation, acquire data at medium speed for 200 seconds. A clear increase of fluorescence should appear after 1 minute. 17) Make sure that the cells rest and equilibrate at room temperature 15 minutes before FACS data acquisition 18) Data acquisition: Samples to be compared should be measured consecutively. 19) For a better reproducibility, make sure that data for the loaded cells are acquired within 2 hours. […]

Row | IC50 (ZAP-70) [µM] | IC50 (Jurkat cells) [µM] | Structure (SMILES)
1 | < 1 | < 1 | COc1cc(Nc2ncc(F)c(Nc3ccc(C)c(C)c3NS(N)(=O)=O)n2)cc(OC)c1OC [Example 31, N-(6-(5-fluoro-2-(3,4,5-trimethoxyphenylamino)pyrimidin-4-ylamino)-2,3-dimethylphenyl)sulfamide]
2 | < 0.1 | < 0.1 | COc1cccc(Nc2nc(Nc3cc(OC)c(OC)c(OC)c3)ncc2F)c1NS(N)(=O)=O [Example 32, N-(2-(5-fluoro-2-(3,4,5-trimethoxyphenylamino)pyrimidin-4-ylamino)-6-methoxyphenyl)sulfamide]
3 | < 0.1 | < 1 | CCOc1cccc(Nc2nc(Nc3cc(OC)c(OC)c(OC)c3)ncc2F)c1NS(N)(=O)=O [Example 33, N-(2-ethoxy-6-(5-fluoro-2-(3,4,5-trimethoxyphenylamino)pyrimidin-4-ylamino)phenyl)sulfamide]
4 | < 1 | < 1 | COc1cc(Nc2ncc(F)c(Nc3ccc(C)cc3NS(N)(=O)=O)n2)cc(OC)c1OC [Example 34, N-(2-(5-Fluoro-2-(3,4,5-trimethoxyphenylamino)pyrimidin-4-ylamino)-5-methylphenyl)sulfamide]
5 | < 1 | < 1 | COc1cc(Nc2ncc(F)c(Nc3ccc(N4CCOCC4)cc3NS(N)(=O)=O)n2)cc(OC)c1OC [Example 35, N-(2-(5-Fluoro-2-(3,4,5-trimethoxyphenylamino)pyrimidin-4-ylamino)-5-morpholinophenyl)sulfamide]
6 | < 50 | < 1 | COc1ccc(NS(N)(=O)=O)c(Nc2nc(Nc3cc(OC)c(OC)c(OC)c3)ncc2F)c1 [Example 36, N-(2-(5-fluoro-2-(3,4,5-trimethoxyphenylamino)pyrimidin-4-ylamino)-4-methoxyphenyl)sulfamide]
7 | < 1 | < 1 | COc1cc(Nc2ncc(F)c(Nc3cc(F)ccc3NS(N)(=O)=O)n2)cc(OC)c1OC [Example 37, N-(4-fluoro-2-(5-fluoro-2-(3,4,5-trimethoxyphenylamino)pyrimidin-4-ylamino)phenyl)sulfamide]
